Assay results from PubChem BioAssay (NCI).
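All cell lines were grown in 96-well plates and treated with compound for 48 hours. GI50 = concentration required for 50% inhibition of growth. Definition used: TGI = concentration required for complete inhibition of growth.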

Columns and labels:
Test in all cases: NCI-60 cell line screen, 48 h
SF-295 CNS = system: SF-295 CNS
NCI/ADR-RES ovarian = system: NCI/ADR-RES ovarian
SR leukemia = system: SR leukemia
RPMI-8226 leukemia = system: RPMI-8226 leukemia
MOLT-4 leukemia = system: MOLT-4 leukemia
T-47D breast = system: T-47D breast
PC-3 prostate = system: PC-3 prostate
ACHN renal = system: ACHN renal
HOP-62 NSCLC = system: HOP-62 NSCLC
OVCAR-5 ovarian = system: OVCAR-5 ovarian
LOX IMVI melanoma = system: LOX IMVI melanoma
EKVX NSCLC = system: EKVX NSCLC
SK-MEL-5 melanoma = system: SK-MEL-5 melanoma
A498 renal = system: A498 renal
MDA-MB-435 = system: MDA-MB-435
OVCAR-8 ovarian = system: OVCAR-8 ovarian
OVCAR-4 ovarian = system: OVCAR-4 ovarian
SNB-75 CNS = system: SNB-75 CNS
UO-31 renal = system: UO-31 renal
NCI-H460 lung = system: NCI-H460 lung
HCC-2998 colon = system: HCC-2998 colon
HOP-92 NSCLC = system: HOP-92 NSCLC
MALME-3M melanoma = system: MALME-3M melanoma
NCI-H23 lung = system: NCI-H23 lung
CCRF-CEM leukemia = system: CCRF-CEM leukemia
IGROV1 ovarian = system: IGROV1 ovarian
NCI-H522 lung = system: NCI-H522 lung
DU-145 prostate = system: DU-145 prostate
UACC-257 melanoma = system: UACC-257 melanoma
SF-539 CNS = system: SF-539 CNS
COLO 205 colon = system: COLO 205 colon
SK-MEL-28 melanoma = system: SK-MEL-28 melanoma
HL-60(TB) leukemia = system: HL-60(TB) leukemia
SF-268 CNS = system: SF-268 CNS
786-0 renal = system: 786-0 renal
SN12C renal = system: SN12C renal
MCF7 breast = system: MCF7 breast
BT-549 breast = system: BT-549 breast
NCI-H226 lung = system: NCI-H226 lung
RXF 393 renal = system: RXF 393 renal
MDA-MB-231 breast = system: MDA-MB-231 breast
OVCAR-3 ovarian = system: OVCAR-3 ovarian
U251 CNS = system: U251 CNS
TK-10 renal = system: TK-10 renal
K-562 leukemia = system: K-562 leukemia
SK-OV-3 ovarian = system: SK-OV-3 ovarian
KM12 colon = system: KM12 colon
M14 melanoma = system: M14 melanoma
HT29 colon = system: HT29 colon
HCT-15 colon = system: HCT-15 colon
HS 578T breast = system: HS 578T breast
HCT-116 colon = system: HCT-116 colon
A549 NSCLC = system: A549 NSCLC
UACC-62 melanoma = system: UACC-62 melanoma
SW-620 colon = system: SW-620 colon
SNB-19 CNS = system: SNB-19 CNS
CAKI-1 renal = system: CAKI-1 renal
SK-MEL-2 melanoma = system: SK-MEL-2 melanoma

CC/C(=C(\c1ccc(Cl)cc1)c1ccc(OCCN2CCCCC2)cc1)c1ccc(O)cc1
GI50 (SF-295 CNS): 1.72 µM | TGI (SF-295 CNS): 3.13 µM | GI50 (NCI/ADR-RES ovarian): 1.75 µM | TGI (NCI/ADR-RES ovarian): 3.8 µM | GI50 (SR leukemia): 1.9 µM | TGI (SR leukemia): 4.51 µM | GI50 (RPMI-8226 leukemia): 1.86 µM | TGI (RPMI-8226 leukemia): 4.1 µM | GI50 (MOLT-4 leukemia): 1.76 µM | TGI (MOLT-4 leukemia): 4.43 µM | GI50 (T-47D breast): 1.22 µM | TGI (T-47D breast): 3.83 µM | GI50 (PC-3 prostate): 1.66 µM | TGI (PC-3 prostate): 3.36 µM | GI50 (ACHN renal): 1.7 µM | TGI (ACHN renal): 3.08 µM | GI50 (HOP-62 NSCLC): 1.77 µM | TGI (HOP-62 NSCLC): 3.48 µM | GI50 (OVCAR-5 ovarian): 1.86 µM | TGI (OVCAR-5 ovarian): 4.04 µM | GI50 (LOX IMVI melanoma): 1.67 µM | TGI (LOX IMVI melanoma): 3.03 µM | GI50 (EKVX NSCLC): 1.91 µM | TGI (EKVX NSCLC): 4.35 µM | GI50 (SK-MEL-5 melanoma): 1.68 µM | TGI (SK-MEL-5 melanoma): 3.04 µM | GI50 (A498 renal): 3.31 µM | TGI (A498 renal): 16.5 µM | GI50 (MDA-MB-435): 1.72 µM | TGI (MDA-MB-435): 3.2 µM | GI50 (OVCAR-8 ovarian): 2.11 µM | TGI (OVCAR-8 ovarian): 5.2 µM | GI50 (OVCAR-4 ovarian): 1.97 µM | TGI (OVCAR-4 ovarian): 4.35 µM | GI50 (SNB-75 CNS): 1.49 µM | TGI (SNB-75 CNS): 3.64 µM | GI50 (UO-31 renal): 1.37 µM | TGI (UO-31 renal): 2.66 µM | GI50 (NCI-H460 lung): 1.82 µM | TGI (NCI-H460 lung): 3.37 µM | GI50 (HCC-2998 colon): 1.85 µM | TGI (HCC-2998 colon): 3.46 µM | GI50 (HOP-92 NSCLC): 1.5 µM | TGI (HOP-92 NSCLC): 3.2 µM | GI50 (MALME-3M melanoma): 1.75 µM | TGI (MALME-3M melanoma): 3.33 µM | GI50 (NCI-H23 lung): 1.88 µM | TGI (NCI-H23 lung): 3.84 µM | GI50 (CCRF-CEM leukemia): 1.91 µM | TGI (CCRF-CEM leukemia): 4.93 µM | GI50 (IGROV1 ovarian): 1.91 µM | TGI (IGROV1 ovarian): 3.94 µM | GI50 (NCI-H522 lung): 2.01 µM | TGI (NCI-H522 lung): 4.44 µM | GI50 (DU-145 prostate): 1.87 µM | TGI (DU-145 prostate): 3.58 µM | GI50 (UACC-257 melanoma): 1.83 µM | TGI (UACC-257 melanoma): 3.94 µM | GI50 (SF-539 CNS): 1.7 µM | TGI (SF-539 CNS): 3.11 µM | GI50 (COLO 205 colon): 1.82 µM | TGI (COLO 205 colon): 3.86 µM | GI50 (SK-MEL-28 melanoma): 1.77 µM | TGI (SK-MEL-28 melanoma): 3.33 µM | GI50 (HL-60(TB) leukemia): 1.91 µM | TGI (HL-60(TB) leukemia): 4.17 µM | GI50 (SF-268 CNS): 1.75 µM | TGI (SF-268 CNS): 3.8 µM | GI50 (786-0 renal): 1.81 µM | TGI (786-0 renal): 3.43 µM | GI50 (SN12C renal): 1.69 µM | TGI (SN12C renal): 3.23 µM | GI50 (MCF7 breast): 0.0622 µM | TGI (MCF7 breast): 2.63 µM | GI50 (BT-549 breast): 2.06 µM | TGI (BT-549 breast): 4.2 µM | GI50 (NCI-H226 lung): 1.85 µM | TGI (NCI-H226 lung): 4.34 µM | GI50 (RXF 393 renal): 1.45 µM | TGI (RXF 393 renal): 2.92 µM | GI50 (MDA-MB-231 breast): 1.81 µM | TGI (MDA-MB-231 breast): 3.29 µM | GI50 (OVCAR-3 ovarian): 1.91 µM | TGI (OVCAR-3 ovarian): 3.63 µM | GI50 (U251 CNS): 1.6 µM | TGI (U251 CNS): 3.16 µM | GI50 (TK-10 renal): 1.96 µM | TGI (TK-10 renal): 4.58 µM | GI50 (K-562 leukemia): 1.6 µM | TGI (K-562 leukemia): 4.62 µM | GI50 (SK-OV-3 ovarian): 2.01 µM | TGI (SK-OV-3 ovarian): 4.88 µM | GI50 (KM12 colon): 1.9 µM | TGI (KM12 colon): 3.74 µM | GI50 (M14 melanoma): 1.88 µM | TGI (M14 melanoma): 3.77 µM | GI50 (HT29 colon): 2.19 µM | TGI (HT29 colon): 5.09 µM | GI50 (HCT-15 colon): 1.61 µM | TGI (HCT-15 colon): 3.15 µM | GI50 (HS 578T breast): 1.78 µM | TGI (HS 578T breast): 4.51 µM | GI50 (HCT-116 colon): 1.98 µM | TGI (HCT-116 colon): 4.26 µM | GI50 (A549 NSCLC): 1.81 µM | TGI (A549 NSCLC): 3.7 µM | GI50 (UACC-62 melanoma): 1.71 µM | TGI (UACC-62 melanoma): 3.25 µM | GI50 (SW-620 colon): 1.75 µM | TGI (SW-620 colon): 3.42 µM | GI50 (SNB-19 CNS): 1.9 µM | TGI (SNB-19 CNS): 3.54 µM

O=C(CSCC(=O)N/N=C\c1cc(Cl)cc(Cl)c1O)N/N=C\c1cc(Cl)cc(Cl)c1O
TGI (SF-295 CNS): 21 µM | TGI (NCI/ADR-RES ovarian): 12.5 µM | TGI (SR leukemia): 11 µM | TGI (MOLT-4 leukemia): 8.81 µM | TGI (T-47D breast): 27.9 µM | TGI (PC-3 prostate): 18.5 µM | TGI (ACHN renal): 11.7 µM | TGI (HOP-62 NSCLC): 18.3 µM | TGI (OVCAR-5 ovarian): 22.9 µM | TGI (LOX IMVI melanoma): 10.8 µM | TGI (EKVX NSCLC): 28.3 µM | TGI (CAKI-1 renal): 15 µM | TGI (SK-MEL-5 melanoma): 16.3 µM | TGI (SK-MEL-2 melanoma): 12.9 µM | TGI (MDA-MB-435): 21.1 µM | TGI (OVCAR-8 ovarian): 14.3 µM | TGI (OVCAR-4 ovarian): 19.1 µM | TGI (SNB-75 CNS): 36 µM | TGI (UO-31 renal): 17.5 µM | TGI (NCI-H460 lung): 42.8 µM | TGI (HOP-92 NSCLC): 31.4 µM | TGI (MALME-3M melanoma): 8.02 µM | TGI (NCI-H23 lung): 22.9 µM | TGI (CCRF-CEM leukemia): 0.748 µM | TGI (IGROV1 ovarian): 15.3 µM | TGI (NCI-H522 lung): 6.59 µM | TGI (DU-145 prostate): 21.1 µM | TGI (UACC-257 melanoma): 18.2 µM | TGI (SF-539 CNS): 11.1 µM | TGI (COLO 205 colon): 20.4 µM | TGI (SK-MEL-28 melanoma): 18.9 µM | TGI (HL-60(TB) leukemia): 13.9 µM | TGI (SF-268 CNS): 15.7 µM | TGI (786-0 renal): 20 µM | TGI (SN12C renal): 16.2 µM | TGI (MCF7 breast): 34.5 µM | TGI (BT-549 breast): 25.8 µM | TGI (NCI-H226 lung): 15 µM | TGI (RXF 393 renal): > 100 µM | TGI (MDA-MB-231 breast): 13.5 µM | TGI (OVCAR-3 ovarian): 6.83 µM | TGI (U251 CNS): 6.61 µM | TGI (TK-10 renal): 21 µM | TGI (K-562 leukemia): 12.7 µM | TGI (SK-OV-3 ovarian): 24 µM | TGI (KM12 colon): 19.7 µM | TGI (M14 melanoma): 17.5 µM | TGI (HT29 colon): 22.3 µM | TGI (HCT-15 colon): 12.9 µM | TGI (HS 578T breast): 20.1 µM | TGI (HCT-116 colon): 12.8 µM | TGI (A549 NSCLC): 32.8 µM | TGI (UACC-62 melanoma): 13.7 µM | TGI (SW-620 colon): 16.2 µM | TGI (SNB-19 CNS): > 100 µM
